Values after ≈ are worked out from the molar mass of the structure shown. Where two headings read alike, the source gives them in different places. Marks after values point to notes of the source that are not given here.
Tests used:
[1] = Metabolic stability in human liver microsomes; conditions: 1 μM test compound, 0.5 mg/mL microsomal protein; 6.15 mL/min/kg is the limitation of assay sensitivity
Experimental: The human microsomal stability assay is used for early assessment of metabolic stability of a test compound in human liver microsomes.
Human liver microsomes (Cat. NO.: 452117, Corning, USA; Cat. NO.: H2610, Xenotech, USA) were preincubated with test compound for 10 minutes at 37° C. in 100 mM potassium phosphate buffer, pH 7.4. The reactions were initiated by adding NADPH regenerating system. The final incubation mixtures contained 1 μM test compound, 0.5 mg/mL liver microsomal protein, 1 mM MgCL2, 1 mM NADP, 1 unit/mL isocitric dehydrogenase and 6 mM isocitric acid in 100 mM potassium phosphate buffer, pH 7.4. After incubation times of 0, 3, 6, 9, 15 and 30 minutes at 37° C., 300 μL of cold ACN (including internal standard) was added to 100 μL incubation mixture to terminate the reaction. Following precipitation and centrifugation, the amount of compound remaining in the samples were determined by LC-MS/MS. Controls of no NADPH regenerating system at zero and 30 minutes were also prepared and analyzed.

human TLR7 = human TLR7 (Homo sapiens (Human), UniProt Q9NYK1); test: HEK-Blue-hTLR7 cells assay (SEAP reporter); assay type: cell-based; conditions: 20 hrs
Sequence of human TLR7 (Q9NYK1 27-1049): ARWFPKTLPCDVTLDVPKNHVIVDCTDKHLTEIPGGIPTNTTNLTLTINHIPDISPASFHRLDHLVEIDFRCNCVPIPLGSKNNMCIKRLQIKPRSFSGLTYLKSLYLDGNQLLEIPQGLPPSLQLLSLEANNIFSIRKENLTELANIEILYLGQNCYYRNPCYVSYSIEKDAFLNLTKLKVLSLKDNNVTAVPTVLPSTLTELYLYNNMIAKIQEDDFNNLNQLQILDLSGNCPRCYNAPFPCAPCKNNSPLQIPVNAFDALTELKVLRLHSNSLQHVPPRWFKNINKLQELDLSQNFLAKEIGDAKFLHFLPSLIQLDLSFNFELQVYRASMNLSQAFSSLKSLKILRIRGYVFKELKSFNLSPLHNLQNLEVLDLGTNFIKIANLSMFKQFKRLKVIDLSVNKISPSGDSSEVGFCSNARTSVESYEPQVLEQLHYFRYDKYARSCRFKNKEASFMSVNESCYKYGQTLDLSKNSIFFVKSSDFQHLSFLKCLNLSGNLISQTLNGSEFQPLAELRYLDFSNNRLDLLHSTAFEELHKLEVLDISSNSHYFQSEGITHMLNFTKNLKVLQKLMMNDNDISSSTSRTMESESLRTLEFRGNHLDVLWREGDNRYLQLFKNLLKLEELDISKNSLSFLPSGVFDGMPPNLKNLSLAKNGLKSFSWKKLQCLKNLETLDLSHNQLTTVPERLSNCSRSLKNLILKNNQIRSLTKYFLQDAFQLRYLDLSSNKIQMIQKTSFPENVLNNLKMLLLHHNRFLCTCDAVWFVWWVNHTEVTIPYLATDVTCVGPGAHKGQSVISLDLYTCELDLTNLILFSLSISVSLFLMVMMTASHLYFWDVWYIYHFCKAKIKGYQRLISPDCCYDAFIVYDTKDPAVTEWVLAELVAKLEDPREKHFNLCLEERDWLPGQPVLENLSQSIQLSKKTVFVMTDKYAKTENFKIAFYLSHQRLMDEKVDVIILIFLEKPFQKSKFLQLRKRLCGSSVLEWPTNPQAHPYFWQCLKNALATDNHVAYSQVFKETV
Experimental: A stable HEK-Blue-hTLR7 cell line was purchased from InvivoGen (Cat.#: hkb-htlr7, San Diego, Calif., USA). These cells were designed for studying the stimulation of human TLR7 by monitoring the activation of NF-κB. […] Therefore the reporter expression was regulated by the NF-κB promoter upon stimulation of human TLR7 for 20 hrs. The cell culture supernatant SEAP reporter activity was determined using QUANTI-Blue™ kit (Cat.#: rep-qb1, Invivogen, San Diego, Ca, USA) at a wavelength of 640 nm, a detection medium that turns purple or blue in the presence of alkaline phosphatase.
HEK-Blue-hTLR7 cells were incubated at a density of 250,000˜450,000 cells/mL in a volume of 180 μL in a 96-well plate in Dulbecco's Modified Eagle's medium (DMEM) containing 4.5 g/L glucose, 50 U/mL penicillin, […], […], 2 mM L-glutamine, 10% (V/V) heat-inactivated fetal bovine serum for 24 hrs. Then the HEK-Blue-hTLR-7 cells were incubated with addition of 20 μL test compound in a serial dilution in the presence of final DMSO at 1% and perform incubation under 37° C. in a CO2 incubator for 20 hrs. Then 20 μL of the supernatant from each well was incubated with 180 μL Quanti-blue substrate solution at 37° C. for 2 hrs and the absorbance was read at 620˜655 nm using a spectrophotometer. The signalling pathway that TLR7 activation leads to downstream NF-κB activation has been widely accepted, and therefore similar reporter assay was also widely used for evaluating TLR7 agonist (Tsuneyasu Kaisho and Takashi Tanaka, Trends in Immunology, Volume 29, Issue 7, July 2008, […]; Hiroaki Hemmi et al, Nature Immunology 3, 196-200 (2002)).

LYSA solubility = assay type: physicochemical; conditions: 0.05 M phosphate buffer, pH 6.5, aqueous buffer, thermodynamic from solid
Experimental: LYSA solubility assay is used to determine the aqueous solubility of a compound. Samples were prepared in duplicate from 10 mM DMSO stock solution. […] After one night, the solutions were filtered using a microtiter filter plate. Then the filtrate and its 1/10 dilution were analyzed by HPLC-UV.

[2] = read-out: HEK-Blue-hTLR7 (EC50 (μM))

SMILES	EC50 (human TLR7; [2]) [µM]	also measured
COCCS(=N)(=O)c1nc(N)c2[nH]c(=O)n(Cc3ccccc3)c2n1 (single isomer, unassigned) [Example 3-A, 6-Amino-9-benzyl-2-(2-methoxyethylsulfonimidoyl)-7H-purin-8-one]	–	Human Liver Microsome Clearance [1]: <6.15 mL/min/kg
COCCS(=N)(=O)c1nc(N)c2[nH]c(=O)n(Cc3ccccc3)c2n1 (single isomer, unassigned) [Example 3-B, 6-Amino-9-benzyl-2-(2-methoxyethylsulfonimidoyl)-7H-purin-8-one]	–	EC50 (human TLR7; HEK-Blue-hTLR7 (EC50 (μM))): 0.55 µM
CCCS(=N)(=O)c1nc(N)c2[nH]c(=O)n(Cc3ccc(Cl)cc3)c2n1 (single isomer, unassigned) [Example 9-A, 6-Amino-9-[(4-chlorophenyl)methyl]-2-(propylsulfonimidoyl)-7H-purin-8-one]	–	EC50 (human TLR7; HEK-Blue-hTLR7 (EC50 (μM))): 0.014 µM
CCCS(=N)(=O)c1nc(N)c2[nH]c(=O)n(Cc3ccc(Cl)cc3)c2n1 (single isomer, unassigned) [Example 9-B, 6-Amino-9-[(4-chlorophenyl)methyl]-2-(propylsulfonimidoyl)-7H-purin-8-one]	–	EC50 (human TLR7; HEK-Blue-hTLR7 (EC50 (μM))): 0.011 µM
CS(=N)(=O)c1nc(N)c2[nH]c(=O)n(Cc3cccnc3)c2n1 (single isomer, unassigned) [Example 16-A, 6-Amino-2-(methylsulfonimidoyl)-9-(3-pyridylmethyl)-7H-purin-8-one]	–	EC50 (human TLR7; HEK-Blue-hTLR7 (EC50 (μM))): 0.76 µM
CS(=N)(=O)c1nc(N)c2[nH]c(=O)n(Cc3cccnc3)c2n1 (single isomer, unassigned) [Example 16-B, 6-Amino-2-(methylsulfonimidoyl)-9-(3-pyridylmethyl)-7H-purin-8-one]	–	EC50 (human TLR7; HEK-Blue-hTLR7 (EC50 (μM))): 0.15 µM
CS(=N)(=O)c1nc(N)c2[nH]c(=O)n(Cc3ccccc3)c2n1 (stereo not drawn) [Example 1, 6-Amino-9-benzyl-2-(methylsulfonimidoyl)-7H-purin-8-one]	0.3	Human Liver Microsome Clearance (mL/min/kg) [1]: <6.15* mL/min/kg
COCCCS(=N)(=O)c1nc(N)c2[nH]c(=O)n(Cc3ccccc3)c2n1 (stereo not drawn) [Example 6, 6-Amino-9-benzyl-2-(3-methoxypropylsulfonimidoyl)-7H-purin-8-one]	0.43	solubility thermodynamic (LYSA solubility): 89 µg/mL (≈ 236 µM)
N=S(=O)(CC(F)(F)F)c1nc(N)c2[nH]c(=O)n(Cc3ccccc3)c2n1 (stereo not drawn) [Example 7, 6-Amino-9-benzyl-2-(2,2,2-trifluoroethylsulfonimidoyl)-7H-purin-8-one]	0.18	solubility thermodynamic (LYSA solubility): 18 µg/mL (≈ 46.6 µM)
COc1ccc(Cn2c(=O)[nH]c3c(N)nc(S(C)(=N)=O)nc32)cc1 (stereo not drawn) [Example 10, 6-Amino-9-[(4-methoxyphenyl)methyl]-2-(methylsulfonimidoyl)-7H-purin-8-one]	0.074	–
CCCS(=N)(=O)c1nc(N)c2[nH]c(=O)n(Cc3cccc(C#N)c3)c2n1 (stereo not drawn) [Example 17, 3-[[6-Amino-8-oxo-2-(propylsulfonimidoyl)-7H-purin-9-yl]methyl]benzonitrile]	–	EC50 (human TLR7; HEK-Blue-hTLR7 (EC50 (μM))): 0.068 µM
CCCS(=N)(=O)c1nc(N)c2[nH]c(=O)n(Cc3cccc(C(N)=O)c3)c2n1 (stereo not drawn) [Example 18, 3-[[6-amino-8-oxo-2-(propylsulfonimidoyl)-7H-purin-9-yl]methyl]benzamide]	0.047	solubility thermodynamic (LYSA solubility): 166 µg/mL (≈ 426 µM)
CCCS(=N)(=O)c1nc(N)c2[nH]c(=O)n(CC(C)C)c2n1 (stereo not drawn) [Example 21, 6-Amino-9-isobutyl-2-(propylsulfonimidoyl)-7H-purin-8-one]	–	solubility thermodynamic (LYSA solubility): 121 µg/mL (≈ 387 µM)
CCCS(=N)(=O)c1nc(N)c2[nH]c(=O)n(Cc3ccc(C)cc3)c2n1 (stereo not drawn) [Example 29, 6-Amino-2-(propylsulfonimidoyl)-9-(p-tolylmethyl)-7H-purin-8-one]	0.027	–
CCS(=N)(=O)c1nc(N)c2[nH]c(=O)n(Cc3ccc(C)cc3)c2n1 (stereo not drawn) [Example 71, 6-Amino-2-(ethylsulfonimidoyl)-9-(p-tolylmethyl)-7H-purin-8-one]	0.098	solubility thermodynamic (LYSA solubility): 12 µg/mL (≈ 34.6 µM)

Continued, in another order:

EC50 (human TLR7; [2]) [µM]	SMILES	also measured
0.066	COc1ccc(Cn2c(=O)[nH]c3c(N)nc(S(=N)(=O)CCCCl)nc32)cc1 (stereo not drawn) [Example 11, 6-Amino-2-(3-chloropropylsulfonimidoyl)-9-[(4-methoxyphenyl)methyl]-7H-purin-8-one]	solubility thermodynamic (LYSA solubility): 18 µg/mL (≈ 43.8 µM)
0.19	CCCS(=N)(=O)c1nc(N)c2[nH]c(=O)n(Cc3ccccc3Cl)c2n1 (stereo not drawn) [Example 15, 6-Amino-9-[(2-chlorophenyl)methyl]-2-(propylsulfonimidoyl)-7H-purin-8-one]	–
0.67	CS(=N)(=O)c1nc(N)c2[nH]c(=O)n(Cc3ccccn3)c2n1 (stereo not drawn) [Example 19, 6-Amino-2-(methylsulfonimidoyl)-9-(2-pyridylmethyl)-7H-purin-8-one]	solubility thermodynamic (LYSA solubility): > 428 µg/mL
0.042	CCCS(=N)(=O)c1nc(N)c2[nH]c(=O)n(Cc3cccc(Cl)c3)c2n1 (stereo not drawn) [Example 22, 6-Amino-9-[(3-chlorophenyl)methyl]-2-(propylsulfonimidoyl)-7H-purin-8-one]	–
0.016	CCCS(=N)(=O)c1nc(N)c2[nH]c(=O)n(Cc3ccc(C(F)(F)F)cc3)c2n1 (stereo not drawn) [Example 23, 6-Amino-2-(propylsulfonimidoyl)-9-[[4-(trifluoromethyl)phenyl]methyl]-7H-purin-8-one]	–
0.0096	CCCS(=N)(=O)c1nc(N)c2[nH]c(=O)n(Cc3ccc(Br)cc3)c2n1 (stereo not drawn) [Example 25, 6-Amino-9-[(4-bromophenyl)methyl]-2-(propylsulfonimidoyl)-7H-purin-8-one]	–
0.021	CCCS(=N)(=O)c1nc(N)c2[nH]c(=O)n(Cc3ccc(Cl)c(Cl)c3)c2n1 (stereo not drawn) [Example 26, 6-Amino-9-[(3,4-dichlorophenyl)methyl]-2-(propylsulfonimidoyl)-7H-purin-8-one]	–
0.021	CCCS(=N)(=O)c1nc(N)c2[nH]c(=O)n(Cc3ccc(Cl)c(C)c3)c2n1 (stereo not drawn) [Example 28, 6-Amino-9-[(4-chloro-3-methyl-phenyl)methyl]-2-(propylsulfonimidoyl)-7H-purin-8-one]	–
0.018	CCCS(=N)(=O)c1nc(N)c2[nH]c(=O)n(Cc3ccc(Cl)c(F)c3)c2n1 (stereo not drawn) [Example 30, 6-Amino-9-[(4-chloro-3-fluorophenyl)methyl]-2-(propylsulfonimidoyl)-7H-purin-8-one]	–
0.04	CCCS(=N)(=O)c1nc(N)c2[nH]c(=O)n(Cc3ccc(F)cc3F)c2n1 (stereo not drawn) [Example 31, 6-Amino-9-[(2,4-difluorophenyl)methyl]-2-(propylsulfonimidoyl)-7H-purin-8-one]	Human Liver Microsome Clearance [1]: <6.15 mL/min/kg
0.12	CCCS(=N)(=O)c1nc(N)c2[nH]c(=O)n(Cc3ccnc(C)c3)c2n1 (stereo not drawn) [Example 35, 6-Amino-9-[(2-methyl-4-pyridyl)methyl]-2-(propylsulfonimidoyl)-7H-purin-8-one]	Human Liver Microsome Clearance [1]: <6.15 mL/min/kg
0.022	CCCS(=N)(=O)c1nc(N)c2[nH]c(=O)n(Cc3ccc(C)c(Cl)c3)c2n1 (stereo not drawn) [Example 36, 6-Amino-9-[(3-chloro-4-methyl-phenyl)methyl]-2-(propylsulfonimidoyl)-7H-purin-8-one]	–
0.075	CCCS(=N)(=O)c1nc(N)c2[nH]c(=O)n(Cc3ccc(C(=O)OC)cc3)c2n1 (stereo not drawn) [Example 38, Methyl 4-[[6-amino-8-oxo-2-(propylsulfonimidoyl)-7H-purin-9-yl]methyl]benzoate]	–
0.084	CCCS(=N)(=O)c1nc(N)c2[nH]c(=O)n(Cc3ccc(C(=O)N4CCCCC4)cc3)c2n1 (stereo not drawn) [Example 41, 6-Amino-9-[[4-(piperidine-1-carbonyl)phenyl]methyl]-2-(propylsulfonimidoyl)-7H-purin-8-one]	–
0.09	CCCS(=N)(=O)c1nc(N)c2[nH]c(=O)n(Cc3ccc(C(=O)N4CCCC4)cc3)c2n1 (stereo not drawn) [Example 42, 6-Amino-2-(propylsulfonimidoyl)-9-[[4-(pyrrolidine-1-carbonyl)phenyl]methyl]-7H-purin-8-one]	–
